Measurements as given in ChEMBL document CHEMBL1125453, “Side chain modified 5-deazafolate and 5-deazatetrahydrofolate analogues as mammalian folylpolyglutamate synthetase and glycinamide ribonucleotide formyltransferase inhibitors: synthesis and in vitro biological evaluation” (J Med Chem, 1992).
pIC50, pKi: −log10 of the molar value.

Columns and labels:
[1] = biological target: T1, Folylpolyglutamate synthase, mitochondrial (Mus musculus, UniProt P48760); test: In vitro inhibition of mouse liver Folyl-polyglutamate synthase
T1 sequence (P48760 whole entry): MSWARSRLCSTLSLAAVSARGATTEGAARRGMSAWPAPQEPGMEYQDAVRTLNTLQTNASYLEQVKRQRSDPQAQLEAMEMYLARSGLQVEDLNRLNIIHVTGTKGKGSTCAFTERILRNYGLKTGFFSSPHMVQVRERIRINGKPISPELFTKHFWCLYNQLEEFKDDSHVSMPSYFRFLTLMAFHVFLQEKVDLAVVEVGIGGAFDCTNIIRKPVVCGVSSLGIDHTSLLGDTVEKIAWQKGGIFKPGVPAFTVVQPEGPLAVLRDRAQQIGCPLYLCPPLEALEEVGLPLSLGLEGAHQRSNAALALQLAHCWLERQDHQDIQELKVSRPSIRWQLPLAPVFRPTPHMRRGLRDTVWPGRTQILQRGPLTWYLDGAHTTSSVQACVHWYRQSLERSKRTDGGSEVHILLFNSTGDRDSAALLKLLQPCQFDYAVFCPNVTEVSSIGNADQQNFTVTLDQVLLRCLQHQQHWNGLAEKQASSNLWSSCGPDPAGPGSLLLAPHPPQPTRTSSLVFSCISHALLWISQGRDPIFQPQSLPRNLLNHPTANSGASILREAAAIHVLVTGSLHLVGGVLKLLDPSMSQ

Thymidylate synthase = Thymidylate synthase (Homo sapiens, UniProt P04818); test: In vitro inhibition of human thymidylate synthase (TS)
Dihydrofolate reductase = biological target: T2, Dihydrofolate reductase (Homo sapiens, UniProt P00374); test: In vitro inhibition of human dihydrofolate reductase (DHFR)
T2 sequence (P00374 whole entry): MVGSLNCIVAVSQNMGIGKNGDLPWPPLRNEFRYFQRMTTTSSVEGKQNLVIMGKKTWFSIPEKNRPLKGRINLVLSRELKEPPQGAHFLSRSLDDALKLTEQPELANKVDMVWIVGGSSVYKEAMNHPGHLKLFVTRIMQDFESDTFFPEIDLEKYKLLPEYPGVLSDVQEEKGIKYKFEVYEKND

[2] = biological target: T3, Trifunctional purine biosynthetic protein adenosine-3 (Mus musculus, UniProt Q64737); test: In vitro inhibition of Glycinamide ribonucleotide formyltransferase from L1210 murine leukemia cells
T3 sequence (Q64737 whole entry): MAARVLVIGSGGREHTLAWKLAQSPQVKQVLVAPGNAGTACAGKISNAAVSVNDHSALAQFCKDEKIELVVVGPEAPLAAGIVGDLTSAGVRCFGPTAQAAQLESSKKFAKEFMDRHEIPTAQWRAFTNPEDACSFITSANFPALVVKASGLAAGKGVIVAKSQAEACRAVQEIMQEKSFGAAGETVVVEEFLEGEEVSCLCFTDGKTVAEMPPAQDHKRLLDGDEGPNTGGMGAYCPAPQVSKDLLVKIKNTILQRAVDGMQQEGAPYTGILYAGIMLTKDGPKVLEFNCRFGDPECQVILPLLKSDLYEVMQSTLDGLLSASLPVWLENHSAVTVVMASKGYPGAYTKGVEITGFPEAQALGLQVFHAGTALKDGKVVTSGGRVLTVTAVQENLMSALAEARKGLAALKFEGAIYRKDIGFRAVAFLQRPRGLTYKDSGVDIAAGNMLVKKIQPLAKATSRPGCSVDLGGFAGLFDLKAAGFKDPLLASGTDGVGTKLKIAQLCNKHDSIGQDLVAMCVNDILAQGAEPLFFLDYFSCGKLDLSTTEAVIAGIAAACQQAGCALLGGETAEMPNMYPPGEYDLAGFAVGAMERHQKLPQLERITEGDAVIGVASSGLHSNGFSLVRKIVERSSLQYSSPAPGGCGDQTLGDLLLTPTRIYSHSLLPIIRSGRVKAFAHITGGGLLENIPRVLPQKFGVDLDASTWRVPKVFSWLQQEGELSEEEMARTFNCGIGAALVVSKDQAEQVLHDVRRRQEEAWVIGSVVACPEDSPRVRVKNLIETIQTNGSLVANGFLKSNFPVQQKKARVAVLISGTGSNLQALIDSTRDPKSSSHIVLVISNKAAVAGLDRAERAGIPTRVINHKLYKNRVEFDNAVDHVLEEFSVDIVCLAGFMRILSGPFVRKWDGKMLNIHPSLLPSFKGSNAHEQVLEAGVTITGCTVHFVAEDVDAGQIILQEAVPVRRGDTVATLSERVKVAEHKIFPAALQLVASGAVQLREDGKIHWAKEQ

[3] = biological target: T3, Trifunctional purine biosynthetic protein adenosine-3; test: In vitro inhibition of mouse GAR transformylase

Chain of Thymidylate synthase (P04818 whole entry): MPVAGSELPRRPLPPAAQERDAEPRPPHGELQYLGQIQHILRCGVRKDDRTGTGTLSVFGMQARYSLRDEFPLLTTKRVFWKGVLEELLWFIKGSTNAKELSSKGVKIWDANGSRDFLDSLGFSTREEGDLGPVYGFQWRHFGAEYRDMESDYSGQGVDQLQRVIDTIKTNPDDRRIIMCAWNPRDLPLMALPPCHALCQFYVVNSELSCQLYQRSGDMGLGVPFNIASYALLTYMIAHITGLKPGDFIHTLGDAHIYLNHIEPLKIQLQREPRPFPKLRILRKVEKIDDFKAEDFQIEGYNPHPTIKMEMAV

Structure (SMILES)	pIC50 (Thymidylate synthase)	pKi [3]	pKi [1]	pIC50 (Dihydrofolate reductase)	pKi [2]
CCOP(=O)(O)CCC(NC(=O)c1ccc(NCC2CNc3nc(N)nc(O)c3C2)cc1)C(=O)O (configuration not stated)	< 2.30		3.94	3.02	
Nc1nc(O)c2c(n1)NCC(CNc1ccc(C(=O)NC(CCP(=O)(O)O)C(=O)O)cc1)C2 (configuration not stated)	2.38		5.49	3.66	7.33
Nc1nc(O)c2c(n1)NCC(CNc1ccc(C(=O)NC(CCS(=O)(=O)O)C(=O)O)cc1)C2 (configuration not stated)	2.68		4.66	4.92	6.72
CCOP(=O)(O)CCC(NC(=O)c1ccc(NCc2cnc3nc(N)[nH]c(=O)c3c2)cc1)C(=O)O (configuration not stated)	4.00		2.70	5.89	
Nc1nc2ncc(CNc3ccc(C(=O)NC(CCS(=O)(=O)O)C(=O)O)cc3)cc2c(=O)[nH]1 (configuration not stated)	4.26		3.24	6.40	

The next lines start with results.

pIC50 (Thymidylate synthase)	pKi [3]	Structure (SMILES)	pKi [1]	pIC50 (Dihydrofolate reductase)	pKi [2]
7.17		CCCN(Cc1ccc2nc(N)nc(O)c2c1)c1ccc(C(=O)NC(CCC(=O)O)C(=O)O)cc1 (configuration not stated)			
3.52		Nc1nc2ncc(CNc3ccc(C(=O)NC(CCP(=O)(O)O)C(=O)O)cc3)cc2c(=O)[nH]1 (configuration not stated)	5.05	5.33	
	7.19	Nc1nc(O)c2c(n1)CCC(CNc1ccc(C(=O)NC(CCC(=O)O)C(=O)O)cc1)C2 (configuration not stated)			
